Source: patent US11136320B2, “Fused ring derivative used as FGFR4 inhibitor” (JACOBIO PHARMACEUTICALS CO., LTD., priority 2019, dated 2021)

How the values were obtained:
[1] = tested on: Hepatoma cell Hep3B (high expression of FGFR4 and FGF19); assay: Hepatoma cell proliferation inhibition experiment (MTS method); assay type: cell-based; settings: Homo sapiens, Hep3B; 120 h incubation; read-out: Hep3B(IC50 μM)
From the text: In this experiment, the MTS method was used to test the inhibitory effect of the compounds on the proliferation of Hepatoma cell Hep3B (high expression of FGFR4 and FGF19), and the half inhibitory concentration IC50 of the compounds to Hep3B was obtained. The Hep3B cell line was purchased from ATCC, and the complete culture medium of the Hep3B cell line was MEM+10% FBS+1% PS. MEM cell culture medium, fetal bovine serum, and trypsin were purchased from Gibco, cell culture flasks were purchased from Greiner, and disposable Cell Counting Plate and Taittinger Blue Solution were purchased from Bio-Rad.
(1) 100 μl Hepatoma cell Hep3B suspension was seeded in a 96-well cell culture plate, and the density of each well was 2.0×10^4 cells/ml.
(3) A mixture of MTS (3-(4,5-dimethylthiazol-2-yl)-5-(3-carboxymethoxyphenyl)-2-(4-sulfophenyl)-2H-tetrazolium)/PMS (phenazine methosulfate) was added into each well for coloration, and MTS/PMS in the mixture was at a ratio of 20:1 (ml:ml). 30 μl of the mixture was added into each well of the culture plate above mentioned in step (2), then the culture plate was incubated for 3 h in the incubator.
(5) The inhibition rate was calculated by the […];
(6) According to the inhibition rate of the different concentrations, the IC50 values of the compounds were obtained by curve fitting.

[2] = tested on: Hep3B; assay: Pharmacodynamic in vivo, Hep3B model tumor growth inhibition; parameters: species or system NOD-SCID mice; settings: 60 mg/kg QD, gavage
From the text: The Hep3B cell line was purchased from ATCC; MEM cell culture medium, fetal bovine serum, and trypsin were purchased from Gibco; cell culture flasks were purchased from Greiner; and disposable Cell Counting Plate and taittinger Blue Solution Purchased from Bio-Rad. The disposable sterile syringe was purchased from Changzhou Jinlong Medical Plastic Instrument Co., Ltd, eye surgical scissors and eye surgical forceps were purchased from Shanghai Medical Instrument (Group) Co., Ltd. Surgical Instrument Factory, and 6-8 week old female NOD-SCID mice were purchased from Vitalivar.
a. One strain of Hep3B cells was taken out from the cell bank and MEM medium (MEM+10% FBS+1% PS) was used to recover the cells. The resuscitated cells were placed in a cell culture flask (the wall the flask was marked with the cell type, date, cultivator's name), and the cell culture flask was placed in a CO2 incubator (the temperature of the incubator was 37° C. and the CO2 concentration of the incubator was 5%);
b. When the cells covered about 90% of the bottom of the culture flask, passage was conducted. the cells were continued to cultivate in a CO2 incubator after passage. The above process was repeated until the number of the cell satisfied the requirements of pharmacodynamic in vivo;
c. The cultured cells were collected and counted using a BIO-Rad TC20 cell counter. According to the counting results, the cultured cells were resuspended with PBS and matrix gel (1:1) to obtain a cell suspension (density 5×10^7/ml), and the cell suspension was placed in an ice box for later use.
a. The cells were mixed well before seeding, and 0.5 ml of cell suspension was taken with a 1 ml syringe and bubbles in the cell suspension were removed. The syringe with the cell suspension was place on an ice pack for later use.
b. The NOD-SCID mice were set with the left hand, and the skin on the right back of the mice was disinfected with 75% alcohol. The inoculation was beginning after 30 seconds.
c. During inoculation, 1 mL syringe was on the right hand, and the cell suspension of Hep3B was inoculated subcutaneously into the right shoulder of the right back of the mouse at 0.1 mL/mouse. At inoculation interval, the syringe was placed on an ice pack and the mice were inoculated sequentially.
d. According to the tumor growth, the tumor was measured and the tumor size was calculated on the 12-15 days after inoculation.
Tumor volume calculation: tumor volume (mm^3)=length (mm)×width (mm)×width (mm)/2
e. When the tumors grew to an average volume of 100-150 mm^3, the mice were randomly divided into two groups according to tumor size and the weight of the mouse. […]
f. […] Tumors were measured and the mice were weighed twice a week after administration. […]

[3] = PK analysis of rats; assay type: in vivo; settings: rat, plasma, po, SD rats, p.o. (10 mg/kg)
Protocol: In the present invention, the pharmacokinetics experiment of the compounds in rats was performed using the SD rats (Vitolihua).
(1) Mode of administration: single gavage administration and intravenous injection administration.
(2) Dosage: 10 mg/kg in the gavage administration, 3 mg/kg in the intravenous injection administration.
Gavage administration: before administration, 15 min, 30 min, 1 h, 2 h, 4 h, 6 h, 8 h, 24 h; […]
(§1) (4) Sample processing: 200 μL of orbital blood was collected at each sampling time point. After anticoagulation with heparin, the blood was centrifuged at 5500 rpm for 10 min, and 60 μL of the supernatant was taken and put into the refrigerator at −80° C. for waiting for testing.
Samples obtained after administration of Compound 1 were tested using 4000 LC-MS/MS analyzer, wherein, the chromatographic separation conditions for testing were:
Samples obtained after administration of Compound 7 were tested using 4000 LC-MS/MS analyzer, wherein, the chromatographic separation conditions for testing were:
Samples obtained after administration of Compound 16 were tested using 4000 LC-MS/MS analyzer, wherein, the chromatographic separation conditions for testing were: […]

[4] = PK/PD of NOD-SCID mouse (drug concentration in blood and in tumors); assay type: in vivo; settings: NOD-SCID, mouse, po, 50 mg/kg, p.o. (50 mg/kg); for AUC(0-t): read-out: AUC0-6 h; for concentration at 4 h / concentration at 6 h: tumor
Protocol: This experiment conducted when the pharmacological experiment in vivo was performed by gavage administration, wherein, the blood samples and tumor samples were taken at different time points to detect drug concentration in blood and drug concentrations in tumors.
(1) Mode of administration: gavage administration;
(2) Dosage: 50 mg/kg in the gavage administration;
Three mice were sampled at each sampling point;
as §1, with “Blood sample collection:” for “Sample processing:”, “at” for “at each”, “point for each blood sample.” for “point.”, “mins.” for “min, and”, “put it” for “put”
Tumour sample collection: 200-300 mg of each tumor tissue was taken. The tumor weight was marked, quickly freezed in liquid nitrogen and placed into a refrigerator at −80° C. for waiting for testing.
Tumour sample processing: pure water was added into the tumor sample according to a ratio of […] between the weight of the tumor sample and the volume of pure water and then it was homogenized. The homogenate was stored at −90° C. to −60° C. until the sample was analyzed. After 5 μL of acetonitrile/water (v/v=1:1) was added into 50 μL of tumor sample homogenate, 200 μL of acetonitrile (containing Dexamethasone 100 ng/ml as internal standard, or containing Verapamil 2 ng/ml as internal standard) was added. After protein precipitation, the resulting mixture was vortexed for 2 mins at 4° C. with 4600 g, and then centrifuged for 15 mins to obtain the supernatant. 100 μL of the supernatant was taken and added into 200 μL of deionized water. 5500 LC/MS/MS analyser was used for sample injection and analysis, after vortexing for homogeneity. The conditions for chromatographic separation and mass spectrometric analysis were as follows: […]

IC50 [1]: 0.024 µM
AUC(0-t) ([3]; read-out: Curve area AUC0-24 h): 1590 ng·h/mL
Cmax ([3]; read-out: Drug concentration in blood Cmax): 350 ng/mL
AUC(0-inf) ([4]; plasma, Hep3B model): 29100 ng·h/mL
Cmax ([4]; plasma, Hep3B model): 6200 ng/mL
Tmax ([4]; plasma, Hep3B model): 1 h
half-life ([4]; plasma, Hep3B model): 3.13 h
AUC(0-t) ([4]; plasma, Hep3B model): 20200 ng·h/mL
Cmax ([4]; plasma, SNU878 model): 5430 ng/mL
Tmax ([4]; plasma, SNU878 model): 4 h
AUC(0-t) ([4]; plasma, SNU878 model): 20400 ng·h/mL
concentration at 4 h ([4]; Hep3B model): 64.4 ng/g
concentration at 6 h ([4]; Hep3B model): 44.1 ng/g
concentration at 4 h ([4]; SNU878 model): 3560 ng/g
concentration at 6 h ([4]; SNU878 model): 1030 ng/g
Compound: COCCNc1cc(NC(=O)N2CCCc3cc(CN4CCN(C)CC4=O)c(C=O)nc32)ncc1C#N [Reference compound, roblitinib, reference compound]
TGI % [2]: 97.7%
